According to patent US20230414609A1, “USES OF ORAI1-SPECIFIC CALCIUM CHANNELS IN TREATMENT OF ORAL CANCER” (New York University, priority 2022, published 2023):
Entries after “also recorded” stand apart in the source; their conditions may differ.

Assays:
TRPV1 = target: T1, TRPV1 (Homo sapiens, UniProt Q8NER1); experiment: Stimulation of TRPV1 in HSC-3 cells, cytosolic Ca2+; format: cell-based; conditions: TRPV1 agonist, in the presence of Ca2+
T1 construct: Stimulation of transient receptor channels TRPM7, TRPA1 and TRPV1 in HSC-3 cells; endogenous in cells; host or cells: HSC-3 (human oral squamous cell carcinoma)
T1 sequence (Q8NER1 whole entry): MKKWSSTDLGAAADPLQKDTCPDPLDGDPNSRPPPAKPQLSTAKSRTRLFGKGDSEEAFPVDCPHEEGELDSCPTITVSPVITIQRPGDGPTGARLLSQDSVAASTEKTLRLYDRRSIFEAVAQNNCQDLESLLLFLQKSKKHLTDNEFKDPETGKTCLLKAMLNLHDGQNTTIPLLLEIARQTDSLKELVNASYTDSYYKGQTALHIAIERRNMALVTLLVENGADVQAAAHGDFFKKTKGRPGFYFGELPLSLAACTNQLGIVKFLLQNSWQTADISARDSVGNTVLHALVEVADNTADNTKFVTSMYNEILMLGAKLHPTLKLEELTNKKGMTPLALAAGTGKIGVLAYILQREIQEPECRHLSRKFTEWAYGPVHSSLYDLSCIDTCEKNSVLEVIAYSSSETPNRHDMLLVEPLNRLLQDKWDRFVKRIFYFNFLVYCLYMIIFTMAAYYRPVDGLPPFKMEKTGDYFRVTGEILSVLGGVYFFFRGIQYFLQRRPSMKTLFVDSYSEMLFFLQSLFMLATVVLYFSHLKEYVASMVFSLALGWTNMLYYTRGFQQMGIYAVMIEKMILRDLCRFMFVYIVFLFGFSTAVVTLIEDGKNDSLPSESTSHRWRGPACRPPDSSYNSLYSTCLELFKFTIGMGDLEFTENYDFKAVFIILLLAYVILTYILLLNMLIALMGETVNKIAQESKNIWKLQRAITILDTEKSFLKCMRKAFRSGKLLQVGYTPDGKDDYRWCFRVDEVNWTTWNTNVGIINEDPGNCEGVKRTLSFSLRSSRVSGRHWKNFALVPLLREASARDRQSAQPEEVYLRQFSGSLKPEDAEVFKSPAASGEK

[1] = system: MMP1 gene expression in HSC-3 cells; experiment: qRT-PCR of MMP1 gene expression in HSC-3 cells; format: cell-based, human
Experimental: (D) is a schematic of the Boyden chambers and solutions used to quantify cell invasion. DOK cells overexpressing ORAI1 (O1) and STIM1 (S1) were seeded in the top chamber with 2% FBS. Media in the bottom chamber contained 10% FBS.
The role of ORAI1 in oral cancer progression was further elucidated by examining the expression of oncogenes in oral cancer, such as MMP1^9,27, as a proof of concept. We first verified the expression of MMP1 in HaCaT, DOK and HSC-3 cells by qRT-PCR analysis. All cells expressed MMP1 in the order oral cancer HSC-3 cells>dysplastic DOK cells>HaCaT cells (FIG. 2A). We next stimulated HSC-3 cells using different concentrations of CPA to examine changes in MMP1 gene expression mediated by SOCE activation. […] These findings were further supported by the decrease in the expression of MMP1 seen in HSC-3 cells with ORAI1 knockdown or deletion. Because in many cells SOCE activation targets the phosphorylation of the transcription factor NFAT (nuclear factor of activated T cells) and its downstream effectors ^28, and because a previous study implicated NFAT in regulating stemness in oral cancer cells ^16, we next interrogated if the transcriptional up-regulation of MMP1 was downstream of NFAT. We first verified the expression of NFAT isoforms (NFAT1-4) in HaCaT, DOK and HSC-3 cells by qRT-PCR analysis showing that NFAT4 (coded by NFATc3) was the most abundant transcript.

SOCE in HSC-3 cells = experiment: SOCE ([Ca2+]cyto) after CPA stimulation in HSC-3 cells; format: cell-based, human; conditions: in the presence of the blocker
Experimental: FIG. 1: (A) Heatmap contrast of average variance stabilizing transformation (VST) of ORAI1, ORAI2 and ORAI3 genes between normal (control: N=3 samples) and tongue cancer patients (N=10 samples). Statistical significance was analyzed using the Benjamini-Hochberg FDR (5%) and fold change of 1.5. Both FDR values and fold change were generated using DESeq2. (B-D) show haematoxylin and eosin (H&E) staining (left) and immunofluorescence staining of ORAI1 (right) in the boxed areas of tongue tissue sections showing normal (B), dysplastic (C) and invasive tumor (D) phenotypes. Nuclear staining by 4′,6-diamidino-2-phenylindole (DAPI) is shown in blue. Scale bar, 200 μm. […] (H) and (J) show qRT-PCR analyses of ORAI1 gene expression by the 2^−ΔΔCT method comparing control (scrambled shRNA) and shORAI1 (ORAI1 KD) HSC-3 cells (H) or CRISPR/Cas9 ORAI1 (ORAI1 KO) (J). (I) and (K) show [Ca^2+]cyto measurements comparing control HSC-3 cells compared to shORAI1 (ORAI1 KD) (I) or compared to CRISPR/Cas9 ORAI1 (ORAI1 KO) (K) (left). Quantification of SOCE corrected for baseline Ca^2+ levels as Δpeak (F−F0) (right). (L) and (M) show cell proliferation measured using MTS comparing control HSC-3 cells compared to shORAI1 (ORAI1 KD) (L) or compared to CRISPR/Cas9 ORAI1 (ORAI1 KO) (M). […]

SOCE in SCC-9 cells = experiment: SOCE ([Ca2+]cyto) after CPA stimulation in SCC-9 cells; format: cell-based, human; conditions: in the presence of the blocker
Excerpt: (§1) To investigate SOCE in oral cancer cells, we first used qRT-PCR analysis to analyze the expression of ORAI1-3 in the human oral squamous cell carcinoma (OSCC) cell lines HSC-3 and SCC-9, in the dysplastic oral keratinocytes DOK cells, and in spontaneously transformed normal keratinocytes HaCaT cells. […] Next, we tested whether these cells had functional SOCE by stimulating them with cyclopiazonic acid (CPA), a reversible blocker of the sarco-endoplasmic reticulum Ca^2+ ATPase (SERCA) pump that passively depletes the ER Ca^2+ stores inducing STIM1/ORAI1 coupling and SOCE activation ^22,23. […] We also examined the contribution of other channels that have been implicated in Ca^2+ influx in various cancer cells.

HSC-3 cells [2] = experiment: Cell proliferation, colorimetric assay MTS; format: cell-based, human
Experimental: FIG. 1: (A) Heatmap contrast of average variance stabilizing transformation (VST) of ORAI1, ORAI2 and ORAI3 genes between normal (control: N=3 samples) and tongue cancer patients (N=10 samples). Statistical significance was analyzed using the Benjamini-Hochberg FDR (5%) and fold change of 1.5. Both FDR values and fold change were generated using DESeq2. (B-D) show haematoxylin and eosin (H&E) staining (left) and immunofluorescence staining of ORAI1 (right) in the boxed areas of tongue tissue sections showing normal (B), dysplastic (C) and invasive tumor (D) phenotypes. Nuclear staining by 4′,6-diamidino-2-phenylindole (DAPI) is shown in blue. Scale bar, 200 μm. […] Quantification of SOCE corrected for baseline Ca^2+ levels as Δpeak (F−F0) (right). (L) and (M) show cell proliferation measured using MTS comparing control HSC-3 cells compared to shORAI1 (ORAI1 KD) (L) or compared to CRISPR/Cas9 ORAI1 (ORAI1 KO) (M).
To address the role of SOCE in key cancer hallmarks such as cell proliferation in oral cancer, we used two independent approaches to eliminate ORAI1 expression in HSC-3 cells. […] To address the effects of ORAI1 in cell proliferation, we analyzed HSC-3 cells in the presence of synta-66 and in which ORAI1 expression had been reduced by shORAI1 or CRISPR/Cas9 editing using the colorimetric assay MTS (FIG. 1, L and M).

HSC-3 cells [3] = experiment: Bulk RNA-seq of CPA stimulated HSC-3 cells; format: cell-based, human
TRPM7 = target: T2, TRPM7 (Homo sapiens, UniProt Q96QT4); experiment: Stimulation of TRPM7 in HSC-3 cells, cytosolic Ca2+; format: cell-based; conditions: TRPM7 agonist, in the presence of Ca2+
T2 construct: Stimulation of transient receptor channels TRPM7, TRPA1 and TRPV1 in HSC-3 cells; endogenous in cells; host or cells: HSC-3 (human oral squamous cell carcinoma)
T2 sequence (Q96QT4 whole entry): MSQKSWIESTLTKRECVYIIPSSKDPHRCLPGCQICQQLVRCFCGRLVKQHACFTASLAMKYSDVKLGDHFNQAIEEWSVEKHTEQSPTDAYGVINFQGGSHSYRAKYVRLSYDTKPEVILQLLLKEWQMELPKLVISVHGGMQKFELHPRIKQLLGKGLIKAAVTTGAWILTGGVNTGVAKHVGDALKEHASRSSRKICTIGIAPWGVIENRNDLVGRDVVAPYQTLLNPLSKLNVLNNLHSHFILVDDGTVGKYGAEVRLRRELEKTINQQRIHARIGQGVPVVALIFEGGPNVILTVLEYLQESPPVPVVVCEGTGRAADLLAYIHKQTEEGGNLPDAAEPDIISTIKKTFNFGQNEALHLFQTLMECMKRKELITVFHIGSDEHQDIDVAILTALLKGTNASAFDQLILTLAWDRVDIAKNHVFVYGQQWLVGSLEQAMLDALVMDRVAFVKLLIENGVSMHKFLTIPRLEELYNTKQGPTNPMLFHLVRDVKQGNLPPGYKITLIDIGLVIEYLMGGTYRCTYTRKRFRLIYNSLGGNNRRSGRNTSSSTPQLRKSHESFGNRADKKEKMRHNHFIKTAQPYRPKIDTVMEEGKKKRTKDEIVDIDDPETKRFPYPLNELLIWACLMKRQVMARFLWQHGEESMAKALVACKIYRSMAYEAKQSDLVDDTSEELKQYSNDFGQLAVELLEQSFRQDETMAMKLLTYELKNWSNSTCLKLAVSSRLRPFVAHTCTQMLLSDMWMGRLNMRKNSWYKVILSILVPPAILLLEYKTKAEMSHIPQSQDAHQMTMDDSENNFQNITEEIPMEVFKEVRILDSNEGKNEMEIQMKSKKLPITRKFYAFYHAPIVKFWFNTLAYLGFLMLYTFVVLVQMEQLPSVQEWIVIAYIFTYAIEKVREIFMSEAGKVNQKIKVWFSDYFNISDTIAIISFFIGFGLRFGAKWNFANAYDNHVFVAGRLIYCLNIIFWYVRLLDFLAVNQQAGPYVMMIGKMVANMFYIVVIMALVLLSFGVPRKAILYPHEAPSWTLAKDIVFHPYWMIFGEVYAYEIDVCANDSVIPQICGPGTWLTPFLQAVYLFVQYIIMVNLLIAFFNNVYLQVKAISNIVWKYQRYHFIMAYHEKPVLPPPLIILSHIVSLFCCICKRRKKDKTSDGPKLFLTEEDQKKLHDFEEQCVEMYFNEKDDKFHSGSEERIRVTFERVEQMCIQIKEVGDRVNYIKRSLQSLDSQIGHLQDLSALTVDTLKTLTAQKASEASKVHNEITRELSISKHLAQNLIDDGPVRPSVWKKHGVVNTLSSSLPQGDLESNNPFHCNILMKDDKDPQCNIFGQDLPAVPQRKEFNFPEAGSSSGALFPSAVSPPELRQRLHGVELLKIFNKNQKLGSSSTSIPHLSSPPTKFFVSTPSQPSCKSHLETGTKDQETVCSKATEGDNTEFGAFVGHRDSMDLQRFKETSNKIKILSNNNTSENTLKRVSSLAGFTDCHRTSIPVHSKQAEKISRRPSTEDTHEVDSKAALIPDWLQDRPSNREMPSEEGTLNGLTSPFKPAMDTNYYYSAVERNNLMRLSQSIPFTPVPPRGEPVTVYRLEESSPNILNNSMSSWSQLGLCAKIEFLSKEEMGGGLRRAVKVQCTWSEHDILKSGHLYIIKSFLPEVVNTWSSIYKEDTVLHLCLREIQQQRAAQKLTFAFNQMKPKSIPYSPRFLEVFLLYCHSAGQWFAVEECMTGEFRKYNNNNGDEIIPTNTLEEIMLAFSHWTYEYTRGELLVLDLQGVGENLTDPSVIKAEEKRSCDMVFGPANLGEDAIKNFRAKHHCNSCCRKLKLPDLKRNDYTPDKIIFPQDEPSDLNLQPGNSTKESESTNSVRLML
Excerpt: as §1

COc1cc(CNC(=O)CCCC/C=C/C(C)C)ccc1O [capsaicin]
increase in cytosolic Ca2+ (TRPV1): failed to evoke an increase

CC(=O)C1=C(O)[C@@H]2[C@H]3c4c[nH]c5cccc(c45)C[C@H]3C(C)(C)N2C1=O [CPA, cyclopiazonic acid]
time of maximal effect on MMP1 gene expression ([1]; HSC-3 cells, CPA stimulation): 3 h

COc1ccc(OC)c(-c2ccc(NC(=O)c3ccncc3F)cc2)c1 [synta-66]
SOCE (SOCE in HSC-3 cells): significantly reduced; also recorded: abolished | SOCE (SOCE in SCC-9 cells): significantly reduced | proliferation compared to control cells (HSC-3 cells [2]): significantly decreased | effect on the CPA-elicited increase in MMP1 gene expression ([1]; HSC-3 cells stimulated with CPA): attenuated the increase | mRNA level of pain modulators (VEGF-A, B and C, NGF, TLR2, PTGS2) (HSC-3 cells [3]): down-regulated | number of MMP genes significantly down-regulated (HSC-3 cells [3]; out of >21 genes in the MMP family, FDR<0.05): 8

Oc1ccc2c3c1O[C@H]1c4oc5ccccc5c4C[C@@]4(O)[C@@H](C2)N(CC2CC2)CC[C@]314 [naltriben]
increase in cytosolic Ca2+ (TRPM7): failed to evoke an increase
